Test [1] has as its system rASIC1a: rASIC1b chimera C92. As to the kind of experiment: TEVC oocytes, rASIC1a: rASIC1b chimera C92. The class given is cell-based, rat. The settings on record: conditioning pH 7.45, stimulating pH 5. How it is done:
(§1) Two-electrode voltage-clamp (TEVC) experiments using Xenopus laevis oocytes were conducted as previously described. Briefly, oocytes were surgically removed from anaesthetised female frogs, then treated with collagenase (~ 1 mg/ml, Sigma type I) for 2 h under agitation at room temperature. cRNAs were synthesised using a mMessage mMachine T7 or SP6 transcription kit (Thermo Fisher Scientific Australia Pty Ltd, Scoresby, VIC, Australia) and injected into healthy stage V–VI oocytes at 0.2–20 ng per cell. […] Membrane currents were recorded 2–7 days after cRNA-injection under voltage-clamp at -60 mV (Axon Axoclamp 900 A, Molecular Devices, CA, USA) using two standard glass microelectrodes of 0.5–1 MΩ resistance when filled with 3 M KCl solution. […]
(§2) Specific to this work, the standard protocol was for oocytes to be conditioned at pH 7.45 and channels stimulated every 60 s using a 5 s pH 5 or 6 application, unless stated otherwise. […] Activation curves were determined by conditioning oocytes at pH 8 (Fig. 2e − g; and Fig. 5a and b) or 7.45 (Fig. 6; and Supplementary Fig. 2d and c) for 55 s and applying low pH stimuli from 7.25 to 5.0 for 5 s. Steady-state desensitisation (SSD) was determined by applying conditioning solutions of pH values from 8 to 6 for 115 s prior to stimulation by a pH drop to 5 for 5 s. […] Control pH-dependence curves were determined in the absence of any Ma-3. […]

The test system of test [2] is rASIC1a: rASIC1b chimera C166. As to the kind of experiment: TEVC oocytes, rASIC1a: rASIC1b chimera C166. It counts as cell-based, rat. The conditions noted are these: conditioning pH 7.45, stimulating pH 5. The method, then: as §1, §2
For the next test, the system named is rASIC1a N291A. As to the kind of experiment: TEVC oocytes, rASIC1a N291A mutant. The class given is cell-based, rat. The conditions noted are these: concentration-response, conditioning pH 7.45, stimulating pH 6. The method, then:
as §1, §2

Test [3] deals with T1, rASIC1b C208Q/N324K (CN/QK) (Rattus norvegicus, UniProt P55926, C208Q/N291K).
T1 construct: expressed in transfected cells; host or cells: Xenopus laevis oocytes injected with cRNA
T1 sequence (P55926 1-559 isoform P55926-3 C208Q/N324K): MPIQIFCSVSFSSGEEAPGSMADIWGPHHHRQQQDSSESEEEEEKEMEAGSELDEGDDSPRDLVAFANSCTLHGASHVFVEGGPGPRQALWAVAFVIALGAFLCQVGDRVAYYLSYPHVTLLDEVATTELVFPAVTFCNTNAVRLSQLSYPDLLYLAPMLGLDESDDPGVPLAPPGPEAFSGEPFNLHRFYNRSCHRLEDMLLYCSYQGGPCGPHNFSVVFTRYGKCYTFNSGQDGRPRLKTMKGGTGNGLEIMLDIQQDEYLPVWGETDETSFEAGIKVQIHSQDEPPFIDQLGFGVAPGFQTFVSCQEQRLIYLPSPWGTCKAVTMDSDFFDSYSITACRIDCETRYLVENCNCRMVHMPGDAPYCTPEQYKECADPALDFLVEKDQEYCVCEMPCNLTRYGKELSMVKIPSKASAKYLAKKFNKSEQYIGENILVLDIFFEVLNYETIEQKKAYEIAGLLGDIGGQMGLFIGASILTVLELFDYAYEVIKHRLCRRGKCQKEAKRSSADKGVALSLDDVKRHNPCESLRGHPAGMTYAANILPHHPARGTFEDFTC
As to the kind of experiment: TEVC oocytes, rASIC1b double mutant CN/QK. The class given is cell-based. How it is done: as §1, §2

Positions of bridges follow the written chain, without caps; N, C: chain ends. No end group written: not given here.

In the case of “H-SLKCYQHGKVVTCHRDMKFCYHNIGMPFRNLKLILQGCSSSCSETENNKCCSTDRCNK (disulfide 4-20, 13-38, 42-50, 51-56 (inferred)) [Ma-3, mambalgin-3]”, the entries for the “activity of 300 nM Ma-3” value in test [1] and in test [2] were “only partially inhibited” and “inhibited a greater proportion of current”, respectively. Also, in the test with rASIC1a N291A, the “effect of channel mutation on Ma-3 potency” value is given as “had no effect on potency”. The “pH50 of activation in presence of Ma-3” value in test [3] (300 nM Ma-3, conditioning pH 7.45, Hill fit, n = 5–6) amounted to 6.29. For the same substance, the “Hill slope (95% CI)” value in test [3] (conditioning pH 7.45, pH 6 evoked currents, potentiation, 95% CI) is listed as 0.69–2.48.
